Legend:
[1] = target: T1, recombinant hGYS1/GN1 protein (Homo sapiens, UniProt P13807); assay: GYS1 coupled enzyme assay (PK/LDH); assay type: biochemical; settings: geometric mean of at least 2 assay runs; NADH absorbance at 340 nm
T1 sequence (P13807 1-737): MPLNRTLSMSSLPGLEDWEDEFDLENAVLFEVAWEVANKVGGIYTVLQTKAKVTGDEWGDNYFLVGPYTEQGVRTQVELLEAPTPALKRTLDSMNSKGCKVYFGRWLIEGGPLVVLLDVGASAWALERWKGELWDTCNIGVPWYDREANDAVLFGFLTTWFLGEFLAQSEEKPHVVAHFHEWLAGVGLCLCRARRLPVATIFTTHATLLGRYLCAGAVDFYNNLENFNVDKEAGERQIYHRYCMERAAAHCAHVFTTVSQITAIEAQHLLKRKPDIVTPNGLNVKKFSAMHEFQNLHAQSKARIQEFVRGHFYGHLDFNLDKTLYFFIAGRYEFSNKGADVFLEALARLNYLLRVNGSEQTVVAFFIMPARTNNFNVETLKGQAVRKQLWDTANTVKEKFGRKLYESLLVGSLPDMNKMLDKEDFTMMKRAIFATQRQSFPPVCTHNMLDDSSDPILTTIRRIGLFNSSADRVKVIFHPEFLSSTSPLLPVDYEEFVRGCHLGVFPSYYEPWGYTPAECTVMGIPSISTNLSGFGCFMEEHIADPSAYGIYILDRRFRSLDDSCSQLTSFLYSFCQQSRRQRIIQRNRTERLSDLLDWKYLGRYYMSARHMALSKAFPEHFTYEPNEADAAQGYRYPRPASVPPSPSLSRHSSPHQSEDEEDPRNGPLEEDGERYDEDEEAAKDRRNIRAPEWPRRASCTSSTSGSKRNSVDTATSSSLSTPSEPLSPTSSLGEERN
T1 sequence (P46976 1-350 partner): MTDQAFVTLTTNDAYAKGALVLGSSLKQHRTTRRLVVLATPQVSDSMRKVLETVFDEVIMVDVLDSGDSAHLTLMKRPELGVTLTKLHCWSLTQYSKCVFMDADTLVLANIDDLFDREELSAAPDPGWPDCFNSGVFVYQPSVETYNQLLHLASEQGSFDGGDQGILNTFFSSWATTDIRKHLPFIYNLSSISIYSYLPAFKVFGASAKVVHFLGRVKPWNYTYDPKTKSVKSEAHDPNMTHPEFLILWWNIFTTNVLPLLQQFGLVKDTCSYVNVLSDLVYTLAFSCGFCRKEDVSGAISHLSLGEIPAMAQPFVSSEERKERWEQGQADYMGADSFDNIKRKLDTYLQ
Text: (§1) The GYS1 coupled enzyme assay is a kinetic biochemical assay that indirectly quantifies the rate of glycogen synthesis by coupling the conversion of GYS1 substrate UDP-glucose into UDP with downstream enzymatic reactions. UDP is released from UDP-glucose as glucose monomers are linked into the growing glycogen strand by GYS1. The coupled assay then proceeds with pyruvate kinase utilizing UDP and phospho(enol)pyruvate (PEP) to form pyruvate. Lactate dehydrogenase then converts pyruvate and NADH into lactate and NAD+. Oxidation of NADH to NAD+ can be measured continuously with a plate reader by quantifying the decrease in NADH absorbance at 340 nm over time.
Compounds that inhibit the hGYS1 enzyme and, subsequently, the downstream conversion of NADH to NAD+, were tested using assay ready plates (black, clear bottom 384 well plates) in a final DMSO reaction volume of 2.5% DMSO. The Assay Buffer contained 50 mM Tris pH 7.5, 2 mM MgCl2, and 100 mM KCl. Fresh stocks of BSA at a final concentration of 0.02% and TCEP at 1 mM were added before splitting buffer into hGYS1 buffer and substrate buffer. To the hGYS1 buffer, rabbit liver glycogen was added at a final concentration of 0.2% glycogen. Glucose-6-Phosphate was added at 1 mM, recombinant hGYS1/GN1 protein was added at 50 nM to the substrate buffer, phosphoenolpyruvate (PEP) was added at 2 mM, UDP-Glucose was added at 0.8 mM, NADH) was added at 0.6 mM, and Pyruvate Kinase/Lactate Dehydrogenase was added at 20 units/mL. The reaction was initiated by mixing hGYS1 buffer and substrate buffer at a 1:1 ratio. Both buffers were plated using a liquid dispensing device with hGYS1 buffer plated first followed by the substrate buffer. Plates were spun briefly to eliminate air bubbles and are immediately read in continuous mode at an absorbance of 340 nm, for 10 time points in one-minute increments, for a total of 10 minutes. The slope from these 10 time points was normalized to the positive and negative control wells. The duplicate % inhibition values are then averaged and fit to a Hill equation for dose response according to the Levenberg-Marquardt algorithm with the Hill equation maximum set to 100 and the minimum set to 0.
The results are shown in Table 3 below, which reports the IC50 of each compound. Unless otherwise specified, IC50 values are reported as the geometric mean of at least 2 assay runs on separate days. Each run represents the average of a technical replicate, where each compound was assayed twice in the same plate. As shown in the table below, the compounds of the present invention are potent inhibitors of human GYS1.

[2] = target: T2, recombinant hGYS2/GN1 protein (Homo sapiens, UniProt P54840); assay: GYS2 coupled enzyme assay (PK/LDH); assay type: biochemical; settings: geometric mean of at least 2 assay runs; NADH absorbance at 340 nm
T2 sequence (P54840 1-703): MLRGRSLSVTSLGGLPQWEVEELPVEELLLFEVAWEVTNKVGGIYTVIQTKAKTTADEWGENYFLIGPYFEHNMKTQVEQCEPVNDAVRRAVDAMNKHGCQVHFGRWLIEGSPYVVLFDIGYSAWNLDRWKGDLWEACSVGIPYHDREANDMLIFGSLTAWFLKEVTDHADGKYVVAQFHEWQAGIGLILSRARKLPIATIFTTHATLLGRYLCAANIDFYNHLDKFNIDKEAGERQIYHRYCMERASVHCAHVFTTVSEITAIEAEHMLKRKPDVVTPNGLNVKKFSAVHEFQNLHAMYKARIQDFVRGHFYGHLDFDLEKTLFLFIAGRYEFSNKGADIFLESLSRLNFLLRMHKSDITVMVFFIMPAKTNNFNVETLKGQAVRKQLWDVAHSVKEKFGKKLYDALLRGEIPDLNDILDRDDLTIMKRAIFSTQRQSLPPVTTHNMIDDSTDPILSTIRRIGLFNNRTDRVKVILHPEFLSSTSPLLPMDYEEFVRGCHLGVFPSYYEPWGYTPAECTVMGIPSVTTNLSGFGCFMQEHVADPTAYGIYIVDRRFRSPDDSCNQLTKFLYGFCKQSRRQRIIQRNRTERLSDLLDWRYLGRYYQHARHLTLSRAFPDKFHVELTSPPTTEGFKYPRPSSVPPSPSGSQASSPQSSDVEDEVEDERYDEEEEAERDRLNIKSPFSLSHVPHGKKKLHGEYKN
T2 sequence (P46976 1-350 partner): T1 sequence (P46976 1-350 partner)
Text: as §1, with “GYS2” for “GYS1”, “GYS2.” for “GYS1.”
Compounds that inhibit the hGYS2 enzyme and, subsequently, the downstream conversion of NADH to NAD+, were tested using assay ready plates (black, clear bottom 384 well plates) in a final DMSO reaction volume of 2.5% DMSO. The Assay Buffer contained 50 mM Tris pH 7.5, 2 mM MgCl2, and 100 mM KCl. Fresh stocks of BSA at a final concentration of 0.02% and TCEP 1 mM were added before splitting buffer into hGYS2 buffer and substrate buffer. To the hGYS2 buffer, rabbit liver glycogen was added at a final concentration of 0.2% glycogen. Glucose-6-Phosphate was added at 2 mM, recombinant hGYS2/GN1 protein was added at 200 nM to the substrate buffer, phosphoenolpyruvate (PEP) was added at 2 mM, UDP-Glucose was added at 2 mM, NADH was added at 0.6 mM, and Pyruvate Kinase/Lactate Dehydrogenase was added at 20 units/mL. The reaction was initiated by mixing hGYS2 buffer and substrate buffer at a 1:1 ratio. Both buffers were plated using a liquid dispensing device with hGYS2 buffer plated first followed by the substrate buffer. Plates were spun briefly to eliminate air bubbles and are immediately read in continuous mode at an absorbance of 340 nm, for 10 time points in one-minute increments, for a total of 10 minutes. The slope from these 10 time points was normalized to the positive and negative control wells. The duplicate % inhibition values are then averaged and fit to a Hill equation for dose response according to the Levenberg-Marquardt algorithm with the Hill equation maximum set to 100 and the minimum set to 0.
The results are shown in Table 5 below, which reports the IC50 of each compound. Unless otherwise specified, IC50 values are reported as the geometric mean of at least 2 assay runs on separate days. As shown in the table below, the compounds of the present invention are not potent inhibitors of human GYS2. […] Each run represents the average of a technical replicate, where each compound was assayed twice in the same plate.

SMILES	IC50 [1]	IC50 [2]
CC(C)c1ccc([C@@H](NC(=O)[C@H]2C[C@@H]2F)c2ccccc2NC(N)=O)cc1F (single isomer, unassigned) [compound 10]	194 nM	> 100000 nM
CC(C)c1ccc([C@@H](NC(=O)C2CC2)c2cccc3[nH]c(=O)oc23)cc1 (single isomer, unassigned) [compound 15]	883 nM	> 100000 nM
CC(C)c1ccc([C@@H](NC(=O)C2CC2)c2cccc3[nH]c(=O)[nH]c23)cc1 (single isomer, unassigned) [compound 29]	169 nM	> 100000 nM
CNc1ccccc1[C@H](NC(=O)C1CC1)c1ccc(C(C)C)cc1 (single isomer, unassigned) [compound 39]	502 nM	> 100000 nM
CC(=O)Nc1ccc(F)cc1[C@H](NC(=O)C1CC1)c1ccc(C(C)C)cc1 (single isomer, unassigned) [compound 44]	378 nM	> 100000 nM
CC(C)c1ccc([C@@H](NC(=O)C2CC2)c2ccccc2)cc1F (single isomer, unassigned) [compound 52]	591 nM	> 100000 nM
CC(C)c1ccc([C@@H](NC(=O)C2CC2)c2ccccc2Cl)cc1 (single isomer, unassigned) [compound 58]	1380 nM	> 100000 nM
CC(C)c1ccc([C@@H](NC(=O)C2CC2)c2ccccc2NC(=O)C2CC2)cc1 (single isomer, unassigned) [compound 61]	710 nM	> 100000 nM
CC(C)c1ccc([C@@H](NC(=O)C2CC2)c2ccccc2N)cc1 (single isomer, unassigned) [compound 64]	404 nM	> 100000 nM
CC(C)c1ccc([C@@H](NC(=O)C2CC2)c2ccnn2C)cc1 (single isomer, unassigned) [compound 69]	1820 nM	> 100000 nM
CC(=O)Nc1ccccc1[C@H](NC(=O)C1CC1)c1ccc(C(C)C)cc1 [compound 1, (R)-N-((2-acetamidophenyl)(4-isopropylphenyl)methyl)cyclopropanecarboxamide]	285 nM	> 100000 nM
CC(C)c1ccc([C@@H](NC(=O)[C@H]2C[C@@H]2F)c2ccccc2NC(=O)C2CCN(CC(F)(F)F)CC2)cc1 [compound 9, N-(2-((R)-((1R,2S)-2-fluorocyclopropane-1-carboxamido)(4-isopropylphenyl)methyl)phenyl)-1-(2,2,2-trifluoroethyl)piperidine-4-carboxamide]	956 nM	> 100000 nM
CC(C)c1ccc([C@@H](NC(=O)C2CC2)c2ccccc2NC(=O)[C@H]2CCN2)cc1 [compound 50, (R)-N-(2-((R)-cyclopropanecarboxamido(4-isopropylphenyl)methyl)phenyl)azetidine-2-carboxamide]	1790 nM	

Further lines, results first:

IC50 [1]	IC50 [2]	SMILES
964 nM	> 100000 nM	NC(=O)Nc1ccccc1[C@H](NC(=O)C1CC1)c1ccc(C2CCC2)cc1 (single isomer, unassigned) [compound 18]
735 nM	> 100000 nM	CC(C)c1ccc([C@@H](NC(=O)C2CC2)c2cccnc2N)cc1 (single isomer, unassigned) [compound 51]
514 nM	> 100000 nM	Cc1ccccc1[C@H](NC(=O)C1CC1)c1ccc(C(C)C)cc1 (single isomer, unassigned) [compound 65]
2100 nM	> 100000 nM	Cc1cccc([C@H](NC(=O)C2CC2)c2ccc(C(C)C)cc2)c1 (single isomer, unassigned) [compound 66]
397 nM	> 100000 nM	COc1ccccc1[C@H](NC(=O)C1CC1)c1ccc(C(C)C)cc1 (single isomer, unassigned) [compound 71]
2420 nM		CC(=O)N[C@H]1CCC[C@H]1C(=O)N[C@@H](c1ccccc1)c1ccc(C(C)C)cc1 [compound 55, (1R,2S)-2-acetamido-N-((S)-(4-isopropylphenyl)(phenyl)methyl)cyclopentane-1-carboxamide]

Reference: patent US20260085034A1, “N-(BENZHYDRYL)CYCLOALKYLCARBOXAMIDE DERIVATIVES AS INHIBITORS OF GLYCOGEN SYNTHASE 1 (GYS1) AND METHODS OF USE THEREOF” (Maze Therapeutics, Inc., priority 2022, published 2026)
